From US10457710B2, “Antimicrobial peptides, their variants and uses” (priority 2015, dated 2019)
In brackets after ≈: the same amount, converted by molar mass. Where a SMILES comes first, the peptide text is derived from it. [ ]: non-standard residue; d: D form.

Columns and labels:
Assay type in all cases: cell-based
[1] = test system: clinical strains of E. cloacae; assay: MIC, microdilution, clinical strains; details: 0.02% BSA, 0.2% acetic acid
Outline: (§1)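 MIC = lowest peptide concentration without visual growth after 20–24 h at 37° C. Range 0.125–128 μg/ml, inoculum 5.0×10^5 cfu/ml, microdilution format. Antifungal tests used potato dextrose broth; bacterial tests used MH broth.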

[2] = test system: clinical strains of E. coli; assay: MIC, microdilution, clinical strains
Outline: as §1

[3] = test system: clinical strains of K. pneumoniae; assay: MIC, microdilution, clinical strains; details: 0.02% BSA, 0.2% acetic acid
Outline: as §1

[4] = test system: clinical strains of P. aeruginosa; assay: MIC, microdilution, clinical strains; details: 0.02% BSA, 0.2% acetic acid
Outline: as §1

[5] = test system: clinical strains of Proteus mirabilis; assay: MIC, microdilution, clinical strains; details: 0.02% BSA, 0.2% acetic acid
Outline: as §1

[6] = test system: clinical strains of S. aureus; assay: MIC, microdilution, clinical strains; details: 0.02% BSA, 0.2% acetic acid
Outline: as §1

[7] = test system: clinical strains of S. pneumoniae; assay: MIC, microdilution, clinical strains; details: 0.02% BSA, 0.2% acetic acid
Outline: as §1

[8] = test system: clinical strains of Serratia marcescens; assay: MIC, microdilution, clinical strains; details: 0.02% BSA, 0.2% acetic acid
Outline: as §1

[9] = test system: clinical strains of A. johnsonii; assay: MIC, microdilution, clinical strains; parameters: unit: μg/ml; details: Acinetobacter johnsonii strain 1, Muller Hinton broth-cation adjusted, 0.02% BSA, 0.2% acetic acid
Outline: (§2)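 Overnight MH agar colonies were suspended in MH broth to 5.0×10^5 cfu/ml, mixed with serial peptide dilutions (0.125–128 μg/ml) and incubated at 37° C for 20 to 24 hours. Yeast MICs were run the same way in potato dextrose broth, and wells were scored visually.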

[10] = test system: clinical strains of Acinetobacter baumannii; assay: MIC, microdilution, clinical strains; parameters: unit: μg/ml; details: 0.02% BSA, 0.2% acetic acid
Outline: as §1

C. glabrata = assay: MIC, clinical yeast strains
Outline: as §2

C. parapsilosis = assay: MIC, clinical yeast strains
Outline: as §2

Candida albicans = assay: MIC, clinical yeast strains
Outline: as §2

C. quillermondiae = assay: MIC, clinical yeast strains; parameters: Minimum inhibitory concentration: unit: μg/ml; details: C. quillermondiae clinical yeast strain 1
Outline: as §2

[11] = Enterobacter cloacae strain 1, Muller Hinton broth-cation adjusted
[12] = Enterobacter cloacae strain 2, Muller Hinton broth-cation adjusted
[13] = Enterobacter cloacae strain 3, Muller Hinton broth-cation adjusted
[14] = Enterobacter cloacae strain 4, Muller Hinton broth-cation adjusted
[15] = Enterobacter cloacae strain 5, Muller Hinton broth-cation adjusted
[16] = Escherichia coli strain 1, microdilution, Muller Hinton broth-cation adjusted, 0.02% BSA, 0.2% acetic acid
[17] = Escherichia coli strain 2, microdilution, Muller Hinton broth-cation adjusted, 0.02% BSA, 0.2% acetic acid
[18] = Escherichia coli strain 3, microdilution, Muller Hinton broth-cation adjusted, 0.02% BSA, 0.2% acetic acid
[19] = Escherichia coli strain 4, microdilution, Muller Hinton broth-cation adjusted, 0.02% BSA, 0.2% acetic acid
[20] = Escherichia coli strain 5, microdilution, Muller Hinton broth-cation adjusted, 0.02% BSA, 0.2% acetic acid
[21] = Klebsiella pneumoniae strain 1, Muller Hinton broth-cation adjusted
[22] = Klebsiella pneumoniae strain 2, Muller Hinton broth-cation adjusted
[23] = Klebsiella pneumoniae strain 3, Muller Hinton broth-cation adjusted
[24] = Klebsiella pneumoniae strain 4, Muller Hinton broth-cation adjusted
[25] = Klebsiella pneumoniae strain 5, Muller Hinton broth-cation adjusted
[26] = Pseudomonas aeruginosa strain 1, Muller Hinton broth-cation adjusted
[27] = Pseudomonas aeruginosa strain 2, Muller Hinton broth-cation adjusted
[28] = Pseudomonas aeruginosa strain 3, Muller Hinton broth-cation adjusted
[29] = Pseudomonas aeruginosa strain 4, Muller Hinton broth-cation adjusted
[30] = Pseudomonas aeruginosa strain 5, Muller Hinton broth-cation adjusted
[31] = Proteus mirabilis strain 1, Muller Hinton broth-cation adjusted
[32] = Proteus mirabilis strain 2, Muller Hinton broth-cation adjusted
[33] = Proteus mirabilis strain 3, Muller Hinton broth-cation adjusted
[34] = Proteus mirabilis strain 4, Muller Hinton broth-cation adjusted
[35] = Proteus mirabilis strain 5, Muller Hinton broth-cation adjusted
[36] = Staphylococcus aureus strain 1, Muller Hinton broth-cation adjusted
[37] = Staphylococcus aureus strain 2, Muller Hinton broth-cation adjusted
[38] = Staphylococcus aureus strain 3, Muller Hinton broth-cation adjusted
[39] = Staphylococcus aureus strain 4, Muller Hinton broth-cation adjusted
[40] = Staphylococcus aureus strain 5, Muller Hinton broth-cation adjusted
[41] = Streptococcus pneumoniae strain 1, Muller Hinton broth-cation adjusted
[42] = Streptococcus pneumoniae strain 2, Muller Hinton broth-cation adjusted
[43] = Streptococcus pneumoniae strain 3, Muller Hinton broth-cation adjusted
[44] = Streptococcus pneumoniae strain 4, Muller Hinton broth-cation adjusted
[45] = Streptococcus pneumoniae strain 5, Muller Hinton broth-cation adjusted
[46] = Serratia marcescens strain 1, Muller Hinton broth-cation adjusted
[47] = Serratia marcescens strain 2, Muller Hinton broth-cation adjusted
[48] = Serratia marcescens strain 3, Muller Hinton broth-cation adjusted
[49] = Serratia marcescens strain 4, Muller Hinton broth-cation adjusted
[50] = Serratia marcescens strain 5, Muller Hinton broth-cation adjusted
[51] = Acinetobacter baumannii strain 1, Muller Hinton broth-cation adjusted
[52] = Acinetobacter baumannii strain 2, Muller Hinton broth-cation adjusted
[53] = Acinetobacter baumannii strain 3, Muller Hinton broth-cation adjusted
[54] = Acinetobacter baumannii strain 4, Muller Hinton broth-cation adjusted
[55] = Acinetobacter baumannii strain 5, Muller Hinton broth-cation adjusted
[56] = C. glabrata clinical yeast strain 1
[57] = C. glabrata clinical yeast strain 2
[58] = C. glabrata clinical yeast strain 3
[59] = C. glabrata clinical yeast strain 4
[60] = C. parapsilosis clinical yeast strain 1
[61] = C. parapsilosis clinical yeast strain 2
[62] = C. parapsilosis clinical yeast strain 3
[63] = C. parapsilosis clinical yeast strain 4
[64] = Candida albicans clinical yeast strain 1
[65] = Candida albicans clinical yeast strain 2
[66] = Candida albicans clinical yeast strain 3
[67] = Candida albicans clinical yeast strain 4
[68] = Candida albicans clinical yeast strain 5

CC(C)C[C@@H](NC(=O)[C@H](N)CCCNC(=N)N)C(=O)N[C@H](CCCCN)C(=O)N[C@H](Cc1c[nH]c2ccccc12)C(=O)N[C@H](Cc1ccccc1)C(=O)N[C@H](CC(C)C)C(=O)N[C@H](CC(C)C)C(=O)N[C@H](Cc1ccccc1)C(=O)N[C@H](CCCNC(=N)N)C(=O)N[C@H](CCCCN)C(=O)N[C@H](CCCNC(=N)N)C(=O)O [Chain308D] (H-[dR][dL][dK][dW][dF][dL][dL][dF][dR][dK][dR]-OH)
Minimum inhibitory concentration [1, 11]: 2
Minimum inhibitory concentration [1, 12]: 2
Minimum inhibitory concentration [1, 13]: 2
Minimum inhibitory concentration [1, 14]: 2
Minimum inhibitory concentration [1, 15]: 2
Minimum inhibitory concentration [2, 16]: 1
Minimum inhibitory concentration [2, 17]: 0.5
Minimum inhibitory concentration [2, 18]: 1
Minimum inhibitory concentration [2, 19]: 1
Minimum inhibitory concentration [2, 20]: 1
Minimum inhibitory concentration [3, 21]: 4
Minimum inhibitory concentration [3, 22]: 4
Minimum inhibitory concentration [3, 23]: 4
Minimum inhibitory concentration [3, 24]: 4
Minimum inhibitory concentration [3, 25]: 4
Minimum inhibitory concentration [4, 26]: 8
Minimum inhibitory concentration [4, 27]: 8
Minimum inhibitory concentration [4, 28]: 4
Minimum inhibitory concentration [4, 29]: 4
Minimum inhibitory concentration [4, 30]: 4
Minimum inhibitory concentration [5, 31]: >128
Minimum inhibitory concentration [5, 32]: 32
Minimum inhibitory concentration [5, 33]: 128
Minimum inhibitory concentration [5, 34]: >128
Minimum inhibitory concentration [5, 35]: >128
Minimum inhibitory concentration [6, 36]: 1
Minimum inhibitory concentration [6, 37]: 2
Minimum inhibitory concentration [6, 38]: 1
Minimum inhibitory concentration [6, 39]: 2
Minimum inhibitory concentration [6, 40]: 2
Minimum inhibitory concentration [7, 41]: 8
Minimum inhibitory concentration [7, 42]: 4
Minimum inhibitory concentration [7, 43]: 8
Minimum inhibitory concentration [7, 44]: 2
Minimum inhibitory concentration [7, 45]: 4
Minimum inhibitory concentration [8, 46]: 128
Minimum inhibitory concentration [8, 47]: 128
Minimum inhibitory concentration [8, 48]: 64
Minimum inhibitory concentration [8, 49]: >128
Minimum inhibitory concentration [8, 50]: 128
Minimum inhibitory concentration [9]: 4
Minimum inhibitory concentration [10, 51]: 4
Minimum inhibitory concentration [10, 52]: 4
Minimum inhibitory concentration [10, 53]: 4
Minimum inhibitory concentration [10, 54]: 2
Minimum inhibitory concentration [10, 55]: 2
Minimum inhibitory concentration (C. glabrata; [56]): 16
Minimum inhibitory concentration (C. glabrata; [57]): 16
Minimum inhibitory concentration (C. glabrata; [58]): 16
Minimum inhibitory concentration (C. glabrata; [59]): 16
Minimum inhibitory concentration (C. parapsilosis; [60]): 8
Minimum inhibitory concentration (C. parapsilosis; [61]): 8
Minimum inhibitory concentration (C. parapsilosis; [62]): 8
Minimum inhibitory concentration (C. parapsilosis; [63]): 4
Minimum inhibitory concentration (Candida albicans; [64]): 16
Minimum inhibitory concentration (Candida albicans; [65]): 16
Minimum inhibitory concentration (Candida albicans; [66]): 16
Minimum inhibitory concentration (Candida albicans; [67]): 16
Minimum inhibitory concentration (Candida albicans; [68]): 16
Minimum inhibitory concentration (C. quillermondiae): 4

CC(C)C[C@@H](NC(=O)[C@H](N)CCCNC(=N)N)C(=O)N[C@H](CCCCN)C(=O)N[C@H](CCCNC(=N)N)C(=O)N[C@H](Cc1c[nH]c2ccccc12)C(=O)N[C@H](CCCNC(=N)N)C(=O)N[C@H](CC(C)C)C(=O)N[C@H](Cc1ccccc1)C(=O)N[C@H](CCCNC(=N)N)C(=O)N[C@H](CCCCN)C(=O)N[C@H](CCCNC(=N)N)C(=O)O [Chain306D] (H-[dR][dL][dK][dR][dW][dR][dL][dF][dR][dK][dR]-OH)
Minimum inhibitory concentration [1, 11]: 64
Minimum inhibitory concentration [1, 12]: 64
Minimum inhibitory concentration [1, 13]: 32
Minimum inhibitory concentration [1, 14]: 16
Minimum inhibitory concentration [1, 15]: 16
Minimum inhibitory concentration [2, 16]: 1
Minimum inhibitory concentration [2, 17]: 2
Minimum inhibitory concentration [2, 18]: 2
Minimum inhibitory concentration [2, 19]: 2
Minimum inhibitory concentration [2, 20]: 2
Minimum inhibitory concentration ([2]; clinical strains, peptide synthesized as D-form amino acids): 1 µg/mL (≈ 0.619 µM)
Minimum inhibitory concentration [3, 21]: 128
Minimum inhibitory concentration [3, 22]: >128
Minimum inhibitory concentration [3, 23]: >128
Minimum inhibitory concentration [3, 24]: 64
Minimum inhibitory concentration [3, 25]: 64
Minimum inhibitory concentration [4, 26]: 128
Minimum inhibitory concentration [4, 27]: >128
Minimum inhibitory concentration [4, 28]: 128
Minimum inhibitory concentration [4, 29]: >128
Minimum inhibitory concentration [4, 30]: 128
Minimum inhibitory concentration [5, 31]: >128
Minimum inhibitory concentration [5, 32]: >128
Minimum inhibitory concentration [5, 33]: >128
Minimum inhibitory concentration [5, 34]: >128
Minimum inhibitory concentration [5, 35]: >128
Minimum inhibitory concentration [6, 36]: 16
Minimum inhibitory concentration [6, 37]: 32
Minimum inhibitory concentration [6, 38]: 32
Minimum inhibitory concentration [6, 39]: 16
Minimum inhibitory concentration [6, 40]: 8
Minimum inhibitory concentration [7, 41]: 64
Minimum inhibitory concentration [7, 42]: 64
Minimum inhibitory concentration [7, 43]: 64
Minimum inhibitory concentration [7, 44]: 128
Minimum inhibitory concentration [7, 45]: 64
Minimum inhibitory concentration [8, 46]: >128
Minimum inhibitory concentration [8, 47]: >128
Minimum inhibitory concentration [8, 48]: >128
Minimum inhibitory concentration [8, 49]: >128
Minimum inhibitory concentration [8, 50]: >128
Minimum inhibitory concentration [9]: 16
Minimum inhibitory concentration [10, 51]: 16
Minimum inhibitory concentration [10, 52]: 32
Minimum inhibitory concentration [10, 53]: 16
Minimum inhibitory concentration [10, 54]: 16
Minimum inhibitory concentration [10, 55]: 8
Minimum inhibitory concentration (C. glabrata; [56]): 8
Minimum inhibitory concentration (C. glabrata; [57]): 8
Minimum inhibitory concentration (C. glabrata; [58]): 16
Minimum inhibitory concentration (C. glabrata; [59]): 32
Minimum inhibitory concentration (C. parapsilosis; [60]): 8
Minimum inhibitory concentration (C. parapsilosis; [61]): 16
Minimum inhibitory concentration (C. parapsilosis; [62]): 16
Minimum inhibitory concentration (C. parapsilosis; [63]): 4
Minimum inhibitory concentration (Candida albicans; [64]): 16
Minimum inhibitory concentration (Candida albicans; [65]): 8
Minimum inhibitory concentration (Candida albicans; [66]): 8
Minimum inhibitory concentration (Candida albicans; [67]): 16
Minimum inhibitory concentration (Candida albicans; [68]): 16
Minimum inhibitory concentration (C. quillermondiae): 4
